Experimental data taken from patent US11878980B2, “Solid forms of TTK inhibitor” (UNIVERSITY HEALTH NETWORK, priority 2016, dated 2024).
Counter-ions that a name gives are not always drawn.

Key:
[1] = Pharmacokinetic analysis after single oral powder-in-capsule dose, rat plasma by LC/MS; assay type: in vivo, Sprague-Dawley rats; conditions: for AUC0-last / Cmax: Rat, PO, 5 mg/kg; for plasma concentrations relative to free base compound (I) (in words): Sprague Dawley rats, oral
Description: (§1) A single oral, powder-in-capsule dose of each form was administered to three (n=3) female Sprague-Dawley rats and three male beagle dogs (n=3) at 5 mg active pharmaceutical ingredient per kg body weight. The plasma was then analyzed for compound plasma levels by LC/MS.
(§2) Compound was milled using a mortar and pestle and was carefully dispensed into a gelatin capsule, tared on an analytical balance. Loading continued until the desired compound mass was achieved. Size 9 capsules were used for rat dosing and size 3 capsules were used for dogs. Note: compound load was corrected for the bioequivalence ratio of each form.
(§3) Following oral dosing, blood was drawn from the lateral saphenous vein into lithium heparin coated tubes (rats) or K2EDTA coated tubes (dogs), at designated time points. Plasma was collected and stored frozen at −80° C. until analysis.
Plasma samples (20 μL) and spiked plasma standard samples were diluted five-fold with ice cold acetonitrile containing 100 ng/mL verapamil as internal standard. Samples and standards were filtered through 0.22 μm membranes in a 96-well format. Filtrates were then diluted with water to 30% acetonitrile.
10 μL of each sample and standard was injected onto a Waters Acquity CSH 1.7 μm 2.1×100 mm column at 0.6 mL/min by an Acquity UPLC. The C18 column was equilibrated at 5% acetonitrile in water. Compounds were eluted with a gradient to 99% acetonitrile. All mobile phases contained 0.1% (v/v) formic acid.
Column eluent was analyzed by an electrospray ionization tandem quadrupole mass spectrometry system (ESI-MS/MS, a Waters Xevo TQ). Eluent composition was analyzed for three ion-pairs specific for the internal standard and three ion-pairs specific for the analyte. Experimental samples were compared with standard curve samples to determine compound concentrations. Pharmacokinetic parameters were determined using the Excel plug-in “PKfit”.

[2] = Solubility (Solubilitymax, pHmax) of crystalline forms; assay type: physicochemical
[3] = Hygroscopicity (water sorption at 90% RH); assay type: physicochemical
[4] = Pharmacokinetic analysis after single oral powder-in-capsule dose, dog plasma by LC/MS; assay type: in vivo, beagle dogs; conditions: for AUC0-last / Cmax: Dog, PO, 5 mg/kg; for plasma concentrations relative to free base compound (I) (in words): beagle dogs, oral
Description: as §1, §2, §3
Plasma samples (20 μL) and spiked plasma standard samples were diluted eleven fold with ice cold acetonitrile containing 40 ng/mL Diclofenac as internal standard. The mixture was vortexed for 2 min and centrifuged. The 0.5 μL supernatant was injected into a Waters Acquity BEH 1.7 μm 2.1×50 mm column at 0.6 mL/min by an Acquity UPLC. The column was equilibrated with 10% methanol in water. Compounds were eluted with a gradient to 95% methanol. Mobile phases contained 0.025% (v/v) formic acid and 1 mM NH4OAc.
Column eluent was analyzed by an electrospray ionization tandem quadrupole mass spectrometry system (ESI-MS/MS, an API-6500). Eluent composition was analyzed for one ion-pairs specific for the internal standard and one ion-pairs specific for the analyte. Experimental samples were compared with standard curve samples to determine compound concentrations. Pharmacokinetic parameters were determined using WinNonlin Professional 6.2.

Compound | AUC0-last [1] [ng·h/mL] | Cmax [1] [ng/mL] | plasma concentrations relative to free base compound (I) (in words) [1] | Solubilitymax [2] [µg/mL] | pHmax [2] | Hygroscopicity (water sorption at 90% RH) [3] [%] | AUC0-last [4] [ng·h/mL] | Cmax [4] [ng/mL] | plasma concentrations relative to free base compound (I) (in words) [4]
Cc1cc(-c2cnn3c(NC[C@H]4C[C@@](C)(O)C4)cc(Oc4cccnc4)nc23)ccc1C(=O)NC1CC1 [Compound (I) bisphosphate hemihydrate] | 2100 | 1120 | increased plasma concentrations | 100 | <1.14 | 3.9 | 4000 | 830 | increased plasma concentrations
Cc1cc(-c2cnn3c(NC[C@H]4C[C@@](C)(O)C4)cc(Oc4cccnc4)nc23)ccc1C(=O)NC1CC1 [Compound (I) hydrobromide] | 1640 | 260 | increased plasma concentrations | 630 | 0.79 | 2.3 | 2760 | 570 | increased plasma concentrations
Cc1cc(-c2cnn3c(NC[C@H]4C[C@@](C)(O)C4)cc(Oc4cccnc4)nc23)ccc1C(=O)NC1CC1 [Compound (I), N-cyclopropyl-4-(7-((((1s,3s)-3-hydroxy-3-methylcyclobutyl)methyl)amino)-5-(pyridin-3-yloxy)pyrazolo[1,5-a]pyrimidin-3-yl)-2-methylbenzamide] | 140 | 11 |  | <1 |  | 0.8 | 40 | 8 | 
Cc1cc(-c2cnn3c(NC[C@H]4C[C@@](C)(O)C4)cc(Oc4cccnc4)nc23)ccc1C(=O)NC1CC1 [Compound I-monohydrate] |  |  |  | <1 |  |  |  |  | 
